Columns and labels:
Type in all cases: cell-based
Set-up in all cases: key: +: active; -: inactive
Conditions in all cases: agar plates, 1 to 100 milligrams/liter
Herellea vaginicola = experiment: standard plate dilution method, Herellea vaginicola
Procedure: (§1) The culture medium employed permits susceptibility testing of fastidious microorganisms towards antibiotics, sulfonamides and other chemotherapeutic agents. Tryptone soy agar (oxoid) of the following composition is the culture medium. In the test procedure, the amount of a compound required to give complete inhibition or no inhibition of the microbial growth on the agar plates was determined. The compound selected for evaluation is added to the agar medium to give concentrations of one, ten and one hundred milligrams per liter. A series of plates with these concentrations is prepared. Plates containing agar alone are included as controls. Ten percent horse serum is added to one series of such plates. Aliquots of broth culture of each of nine species of microorganisms are innoculated onto the agar plates containing the various compound concentrations and onto the control plates. The plates are incubated at 37° C. in a 10 percent carbon dioxide atmosphere for 18 to 25 hours. The microbial growth on each plate is read visually, and minimal inhibitory concentrations are recorded.

Streptococcus Sp = experiment: standard plate dilution method, Streptococcus sp.
Procedure: as §1

Escherichia coli = experiment: standard plate dilution method, Escherichia coli
Procedure: as §1

Pseudmonas aeruginosa = experiment: standard plate dilution method, Pseudomonas aeruginosa
Procedure: as §1

Mima polymorpha = experiment: standard plate dilution method, Mima polymorpha
Procedure: as §1

Bacillus Subtilus = experiment: standard plate dilution method, Bacillus subtilus
Procedure: as §1

Staphylococcus aureus = experiment: standard plate dilution method, Staphylococcus aureus
Procedure: as §1

CCOC(=O)c1cn2c3c(cc(C)cc3c1=O)OCC2C (centres unmarked) [Example 1, ethyl 2,3-dihydro-3,9-dimethyl-7-oxo-7H-pyrido[1,2,3-de]-1,4-benzoxazine-6-carboxylate]
Microorganism HV (growth inhibition) (Herellea vaginicola): + | Microorganism SS (growth inhibition) (Streptococcus Sp): - | Microorganism EC (growth inhibition) (Escherichia coli): + | Microorganism PA (growth inhibition) (Pseudmonas aeruginosa): - | Microorganism MP (growth inhibition) (Mima polymorpha): - | Microorganism BS (growth inhibition) (Bacillus Subtilus): + | Microorganism SA (growth inhibition) (Staphylococcus aureus): +

CCOC(=O)c1cn2c3c(cc(Cl)cc3c1=O)OCC2C (centres unmarked) [Example 4, ethyl 9-chloro-2,3-dihydro-3-methyl-7-oxo-7H-pyrido[1,2,3-de]-1,4-benzoxazine-6-carboxylate]
Microorganism HV (growth inhibition) (Herellea vaginicola): + | Microorganism SS (growth inhibition) (Streptococcus Sp): - | Microorganism EC (growth inhibition) (Escherichia coli): + | Microorganism PA (growth inhibition) (Pseudmonas aeruginosa): - | Microorganism MP (growth inhibition) (Mima polymorpha): - | Microorganism BS (growth inhibition) (Bacillus Subtilus): + | Microorganism SA (growth inhibition) (Staphylococcus aureus): +

CCOC(=O)c1cn2c3c(ccc(F)c3c1=O)OCC2C (centres unmarked) [Example 5, ethyl 2,3-dihydro-8-fluoro-3-methyl-7-oxo-7H-pyrido[1,2,3-de]-1,4-benzoxazine-6-carboxylate]
Microorganism HV (growth inhibition) (Herellea vaginicola): + | Microorganism SS (growth inhibition) (Streptococcus Sp): - | Microorganism EC (growth inhibition) (Escherichia coli): + | Microorganism PA (growth inhibition) (Pseudmonas aeruginosa): - | Microorganism MP (growth inhibition) (Mima polymorpha): - | Microorganism BS (growth inhibition) (Bacillus Subtilus): + | Microorganism SA (growth inhibition) (Staphylococcus aureus): -

CCOC(=O)c1cn2c3c(cc(F)cc3c1=O)OCC2C (centres unmarked) [Example 6, ethyl 2,3-dihydro-9-fluoro-3-methyl-7-oxo-7H-pyrido[1,2,3-de]-1,4-benzoxazine-6-carboxylate]
Microorganism HV (growth inhibition) (Herellea vaginicola): + | Microorganism SS (growth inhibition) (Streptococcus Sp): - | Microorganism EC (growth inhibition) (Escherichia coli): + | Microorganism PA (growth inhibition) (Pseudmonas aeruginosa): + | Microorganism MP (growth inhibition) (Mima polymorpha): - | Microorganism BS (growth inhibition) (Bacillus Subtilus): + | Microorganism SA (growth inhibition) (Staphylococcus aureus): +

Cc1cc2c3c(c1)c(=O)c(C(=O)O)cn3C(C)CO2 (centres unmarked) [Example 16, 2,3-dihydro-3,9-dimethyl-7-oxo-7H-pyrido[1,2,3-de]-1,4-benzoxazine-6-carboxylic acid]
Microorganism HV (growth inhibition) (Herellea vaginicola): + | Microorganism SS (growth inhibition) (Streptococcus Sp): + | Microorganism EC (growth inhibition) (Escherichia coli): + | Microorganism PA (growth inhibition) (Pseudmonas aeruginosa): - | Microorganism MP (growth inhibition) (Mima polymorpha): - | Microorganism BS (growth inhibition) (Bacillus Subtilus): + | Microorganism SA (growth inhibition) (Staphylococcus aureus): +

CC1COc2ccc(Cl)c3c(=O)c(C(=O)O)cn1c23 (centres unmarked) [Example 17, 8-chloro-2,3-dihydro-3-methyl-7-oxo-7H-pyrido[1,2,3-de]-1,4-benzoxazine-6-carboxylic acid]
Microorganism HV (growth inhibition) (Herellea vaginicola): + | Microorganism SS (growth inhibition) (Streptococcus Sp): + | Microorganism EC (growth inhibition) (Escherichia coli): + | Microorganism PA (growth inhibition) (Pseudmonas aeruginosa): - | Microorganism MP (growth inhibition) (Mima polymorpha): - | Microorganism BS (growth inhibition) (Bacillus Subtilus): + | Microorganism SA (growth inhibition) (Staphylococcus aureus): -

O=C(O)c1cn2c3c(cccc3c1=O)OCC2 [Example 18, 2,3-dihydro-7-oxo-7H-pyrido[1,2,3-de]-1,4-benzoxazine-6-carboxylic acid]
Microorganism HV (growth inhibition) (Herellea vaginicola): - | Microorganism SS (growth inhibition) (Streptococcus Sp): - | Microorganism EC (growth inhibition) (Escherichia coli): - | Microorganism PA (growth inhibition) (Pseudmonas aeruginosa): - | Microorganism MP (growth inhibition) (Mima polymorpha): - | Microorganism BS (growth inhibition) (Bacillus Subtilus): + | Microorganism SA (growth inhibition) (Staphylococcus aureus): -

CC1COc2cccc3c(=O)c(C(=O)O)cn1c23 (centres unmarked) [Example 19, 2,3-dihydro-3-methyl-7-oxo-7H-pyrido[1,2,3-de]-1,4-benzoxazine-6-carboxylic acid]
Microorganism HV (growth inhibition) (Herellea vaginicola): + | Microorganism SS (growth inhibition) (Streptococcus Sp): - | Microorganism EC (growth inhibition) (Escherichia coli): + | Microorganism PA (growth inhibition) (Pseudmonas aeruginosa): - | Microorganism MP (growth inhibition) (Mima polymorpha): - | Microorganism BS (growth inhibition) (Bacillus Subtilus): + | Microorganism SA (growth inhibition) (Staphylococcus aureus): +

COc1cc2c3c(c1)c(=O)c(C(=O)O)cn3C(C)CO2 (centres unmarked) [Example 20, 2,3-dihydro-9-methoxy-3-methyl-7-oxo-7H-pyrido[1,2,3-de]-1,4-benzoxazine-6-carboxylic acid]
Microorganism HV (growth inhibition) (Herellea vaginicola): + | Microorganism SS (growth inhibition) (Streptococcus Sp): - | Microorganism EC (growth inhibition) (Escherichia coli): + | Microorganism PA (growth inhibition) (Pseudmonas aeruginosa): - | Microorganism MP (growth inhibition) (Mima polymorpha): - | Microorganism BS (growth inhibition) (Bacillus Subtilus): + | Microorganism SA (growth inhibition) (Staphylococcus aureus): +

CC1COc2c(F)ccc3c(=O)c(C(=O)O)cn1c23 (centres unmarked) [Example 21, 2,3-dihydro-10-fluoro-3-methyl-7-oxo-7H-pyrido[1,2,3-de]-1,4-benzoxazine-6-carboxylic acid]
Microorganism HV (growth inhibition) (Herellea vaginicola): + | Microorganism SS (growth inhibition) (Streptococcus Sp): + | Microorganism EC (growth inhibition) (Escherichia coli): + | Microorganism PA (growth inhibition) (Pseudmonas aeruginosa): - | Microorganism MP (growth inhibition) (Mima polymorpha): - | Microorganism BS (growth inhibition) (Bacillus Subtilus): + | Microorganism SA (growth inhibition) (Staphylococcus aureus): +

CC1COc2c(Cl)ccc3c(=O)c(C(=O)O)cn1c23 (centres unmarked) [Example 22, 10-chloro-2,3-dihydro-3-methyl-7-oxo-7H-pyrido[1,2,3-de]-1,4-benzoxazine-6-carboxylic acid]
Microorganism HV (growth inhibition) (Herellea vaginicola): + | Microorganism SS (growth inhibition) (Streptococcus Sp): + | Microorganism EC (growth inhibition) (Escherichia coli): + | Microorganism PA (growth inhibition) (Pseudmonas aeruginosa): + | Microorganism MP (growth inhibition) (Mima polymorpha): + | Microorganism BS (growth inhibition) (Bacillus Subtilus): + | Microorganism SA (growth inhibition) (Staphylococcus aureus): +

CC1COc2cc(Cl)cc3c(=O)c(C(=O)O)cn1c23 (centres unmarked) [Example 23, 9-chloro-2,3-dihydro-3-methyl-7-oxo-7H-pyrido[1,2,3-de]-1,4-benzoxazine-6-carboxylic acid]
Microorganism HV (growth inhibition) (Herellea vaginicola): + | Microorganism SS (growth inhibition) (Streptococcus Sp): + | Microorganism EC (growth inhibition) (Escherichia coli): + | Microorganism PA (growth inhibition) (Pseudmonas aeruginosa): - | Microorganism MP (growth inhibition) (Mima polymorpha): - | Microorganism BS (growth inhibition) (Bacillus Subtilus): + | Microorganism SA (growth inhibition) (Staphylococcus aureus): +

CC1COc2cc(F)cc3c(=O)c(C(=O)O)cn1c23 (centres unmarked) [Example 24, 9-fluoro-2,3-dihydro-3-methyl-7-oxo-7H-pyrido[1,2,3-de]-1,4-benzoxazine-6-carboxylic acid]
Microorganism HV (growth inhibition) (Herellea vaginicola): + | Microorganism SS (growth inhibition) (Streptococcus Sp): + | Microorganism EC (growth inhibition) (Escherichia coli): + | Microorganism PA (growth inhibition) (Pseudmonas aeruginosa): + | Microorganism MP (growth inhibition) (Mima polymorpha): - | Microorganism BS (growth inhibition) (Bacillus Subtilus): + | Microorganism SA (growth inhibition) (Staphylococcus aureus): +

CC1COc2ccc(F)c3c(=O)c(C(=O)O)cn1c23 (centres unmarked) [Example 25, 8-fluoro-2,3-dihydro-3-methyl-7-oxo-7H-pyrido[1,2,3-de]-1,4-benzoxazine-6-carboxylic acid]
Microorganism HV (growth inhibition) (Herellea vaginicola): + | Microorganism SS (growth inhibition) (Streptococcus Sp): + | Microorganism EC (growth inhibition) (Escherichia coli): + | Microorganism PA (growth inhibition) (Pseudmonas aeruginosa): - | Microorganism MP (growth inhibition) (Mima polymorpha): - | Microorganism BS (growth inhibition) (Bacillus Subtilus): + | Microorganism SA (growth inhibition) (Staphylococcus aureus): -

Cc1ccc2c3c1c(=O)c(C(=O)O)cn3C(C)CO2 (centres unmarked) [Example 26, 8-methyl-2,3-dihydro-3-methyl-7-oxo-7H-pyrido[1,2,3-de]-1,4-benzoxazine-6-carboxylic acid]
Microorganism HV (growth inhibition) (Herellea vaginicola): + | Microorganism SS (growth inhibition) (Streptococcus Sp): + | Microorganism EC (growth inhibition) (Escherichia coli): + | Microorganism PA (growth inhibition) (Pseudmonas aeruginosa): - | Microorganism MP (growth inhibition) (Mima polymorpha): - | Microorganism BS (growth inhibition) (Bacillus Subtilus): + | Microorganism SA (growth inhibition) (Staphylococcus aureus): +

Cc1c(Cl)cc2c(=O)c(C(=O)O)cn3c2c1OCC3C (centres unmarked) [Example 34 (acid)]
Microorganism HV (growth inhibition) (Herellea vaginicola): + | Microorganism SS (growth inhibition) (Streptococcus Sp): + | Microorganism EC (growth inhibition) (Escherichia coli): + | Microorganism PA (growth inhibition) (Pseudmonas aeruginosa): + | Microorganism MP (growth inhibition) (Mima polymorpha): + | Microorganism BS (growth inhibition) (Bacillus Subtilus): + | Microorganism SA (growth inhibition) (Staphylococcus aureus): +

CCOC(=O)c1cn2c3c(c(C)c(Cl)cc3c1=O)OCC2C (centres unmarked) [Example 34 (ester)]
Microorganism HV (growth inhibition) (Herellea vaginicola): + | Microorganism SS (growth inhibition) (Streptococcus Sp): + | Microorganism EC (growth inhibition) (Escherichia coli): + | Microorganism PA (growth inhibition) (Pseudmonas aeruginosa): + | Microorganism MP (growth inhibition) (Mima polymorpha): + | Microorganism BS (growth inhibition) (Bacillus Subtilus): + | Microorganism SA (growth inhibition) (Staphylococcus aureus): +

Cc1cc(Cl)c2c3c1c(=O)c(C(=O)O)cn3C(C)CO2 (centres unmarked) [Example 37 (acid)]
Microorganism HV (growth inhibition) (Herellea vaginicola): + | Microorganism SS (growth inhibition) (Streptococcus Sp): + | Microorganism EC (growth inhibition) (Escherichia coli): + | Microorganism PA (growth inhibition) (Pseudmonas aeruginosa): + | Microorganism MP (growth inhibition) (Mima polymorpha): + | Microorganism BS (growth inhibition) (Bacillus Subtilus): + | Microorganism SA (growth inhibition) (Staphylococcus aureus): +

CCOC(=O)c1cn2c3c(c(Cl)cc(C)c3c1=O)OCC2C (centres unmarked) [Example 37 (ester)]
Microorganism HV (growth inhibition) (Herellea vaginicola): - | Microorganism SS (growth inhibition) (Streptococcus Sp): - | Microorganism EC (growth inhibition) (Escherichia coli): - | Microorganism PA (growth inhibition) (Pseudmonas aeruginosa): - | Microorganism MP (growth inhibition) (Mima polymorpha): - | Microorganism BS (growth inhibition) (Bacillus Subtilus): + | Microorganism SA (growth inhibition) (Staphylococcus aureus): -

CC1COc2c(Cl)cc([N+](=O)[O-])c3c(=O)c(C(=O)O)cn1c23 (centres unmarked) [Example 38 (acid)]
Microorganism HV (growth inhibition) (Herellea vaginicola): + | Microorganism SS (growth inhibition) (Streptococcus Sp): - | Microorganism EC (growth inhibition) (Escherichia coli): + | Microorganism PA (growth inhibition) (Pseudmonas aeruginosa): - | Microorganism MP (growth inhibition) (Mima polymorpha): - | Microorganism BS (growth inhibition) (Bacillus Subtilus): + | Microorganism SA (growth inhibition) (Staphylococcus aureus): +
